Patent US20260315497A1, “COMPOSITION FOR TREATING EPILEPSY” (CanaQuest Medical Corp., priority 2022, published 2026)

How the values were obtained:
Type in all cases: in vivo, Male, CF-1 male mice
[1] = Maximal Electroshock Seizure (MES) Model in mice, Initial Tests; conditions: Mus musculus, ip, MES 50 mA, 60 Hz, 0.2 sec, i.p., 2 hours after injection, 10 mice per dose, read-out: ED50 (effective dose to protect 50% of mice)
Experimental: The composition was tested using the Maximal Electroshock Seizure (MES) Model. This is an established procedure to provide an indication of a compound's ability to prevent seizure spread.
(§1) Subjects Male, CF-1 male mice (18-25 grams) were used as subjects. They were housed under standard conditions in the vivarium at the CCBR. They were given 2 days (minimum) to acclimate before testing began.
(§2) Drugs and Doses CBD was provided in pure form and in the described composition. Two four-point dose-response curves were done, one for the pure form CBD and one for the described composition. Ten mice were tested at each dose. (Mice were not re-used.) Compounds were injected intraperitoneally. Testing was done 2 hours after injection. Drugs were injected at a constant volume, and were diluted as necessary using a vehicle of 1:1:18 (Cremophor:alcohol:saline). Dilution is necessary to achieve volumes large enough for injection. Doses were: 0 (vehicle), 25, 50, 100, 200 mg/kg. A 400 mg/kg dose was added later to extend the standard CBD curve.
MES Procedure The MES stimulus consisted of 0.2 sec of 60 Hz since-wave current administered at an intensity of 50 mA via corneal electrodes. The percentage of mice protected against the tonic hindlimb extension component of the resulting seizure was measured. Mice were then euthanized following the procedure.

[2] = Toxicity Assessment: ataxia, Loscher scale, Initial Tests; conditions: just before the MES test, i.p., standard CBD at any dose
Experimental: as §1, §2
Toxicity Assessment Ataxia (impaired movement) was assessed using the Loscher scale and was done just before the MES test.

[3] = MES test in mice, Further Tests; conditions: Mus musculus, ip, MES 50 mA, 60 Hz, 0.2 sec, i.p., 2 hours after injection, Litchfield and Wilcoxon method, read-out: ED50 (effective dose to protect 50% of mice)
Description: (§3) Subjects Male, CF-1 male mice (18-25 grams) were used as subjects. They were housed under standard conditions in a vivarium at the University of Toronto (CCBR). They were given 2 days (minimum) to acclimate before testing began.
(§4) Drugs and Doses CBD was provided in the form of: 1) standard CBD isolate, 2) CBD in DHA/EPA without emulsification (2% DHA, 2% EPA, 12% “stabilizer”), 3) CBD emulsified in DHA/EPA to produce larger particles (66.2 nm diameter) and 4) CBD emulsified in DHA/EPA to produce smaller particles (32.7 nm diameter). Drugs were injected intraperitoneally at a constant volume, and were diluted as necessary using a vehicle of 1:1:18 (Cremophor:alcohol:saline). Dilution is necessary to achieve volumes large enough for injection. Doses of CBD ranged from 0 (vehicle) to 400 mg/kg. As in our past studies, the MES stimulus was given 2 hours after injection. Dose-response curves were done for each formulation.
MES Procedure The MES stimulus consisted of 0.2 sec of 60 Hz since-wave current administered at an intensity of 50 mA via corneal electrodes. The percentage of mice protected against the tonic hindlimb extension component of the resulting seizure was measured. […]
(§5) Toxicity Assessment Ataxia (impaired movement) was assessed using the Loscher scale and was done just before the MES test. Loscher scores of 2-5 were scored a “toxicity present”. […]

[4] = Toxicity Assessment: ataxia, Loscher scale, Further Tests
Description: as §3, §4, §5
The Litchfield/Wilcoxon method could not be applied to the toxicity data for technical reasons, so TD50s were calculated from line plots.

## C=C(C)[C@@H]1CCC(C)=C[C@H]1c1c(O)cc(CCCCC)cc1O [regular CBD, cannabidiol]
[1]
  ED50: 162 mg/kg
[2]
  signs of toxicity: No mice showed any signs of toxicity
[3]
  ED50: 146 mg/kg
[4]; Loscher scores of 2-5 = toxicity present, i.p., highest dose tested
  TD25: 400 mg/kg
[4]; mouse, in vivo, ip, speculated to be higher than the highest dose tested
  TD50 at 2 h: > 400 mg/kg
